Assay results from patent US20250152574A1 (BIOGEN MA INC., priority 2022, published 2025).
pIC50: −log10 of the molar value.

Biological target: T1, EBP (Homo sapiens, UniProt Q15125)
T1 construct: HEK293T cells were utilized as the source of EBP enzyme; endogenous in cells; host or cells: HEK293T
Experiment: EBP Functional Assay (EBP immunoaffinity LC-MS assay)
Assay type: biochemical
Conditions: HEK293T cells as source of EBP enzyme; substrate zymosterol-d5, 37° C. for 4 h; percent conversion to dehydrolathosterol-d5 by LC-APCI MRM MS
Protocol: The EBP immunoaffinity (IA) LC-MS assay measures the potency of small molecule inhibitors of EBP by quantifying their concentration-dependent changes in the enzyme's substrate and product using liquid chromatography atmospheric pressure chemical ionization multiple reaction monitoring mass spectrometry (LC-APCI MRM MS). HEK293T cells were utilized as the source of EBP enzyme. The enzyme was incubated with the small molecule inhibitors at variable concentrations for 30 min. Deuterated form of EBP substrate, zymosterol-d5 (Avanti Polar Lipids, Cat #700068P-1 mg), was then added and the plate was incubated at 37° C. for 4 h. Finally, the sterol isomers were extracted and injected to LC-APCI MRM MS. MRM transition used for the quantification for both zymosterol and […] (substrate and product of EBP enzymatic reaction, respectively) is 372.3-203.2, CE 30 and DP 80 in positive ion mode. Percent conversion of the zymosterol-d5 to dehydrolathosterol-d5 was used to derive IC50 curves. Tasin-1 (1′-[(4-Methoxyphenyl)sulfonyl]-4-methyl-1,4′-bipiperidine, CAS 792927-06-1) was used as the reference small molecule inhibitor.
Percent conversion versus the compound concentration data were fit to the following 4-parameter logistic model to generate IC50 curves: […]

T1 sequence (Q15125 whole entry): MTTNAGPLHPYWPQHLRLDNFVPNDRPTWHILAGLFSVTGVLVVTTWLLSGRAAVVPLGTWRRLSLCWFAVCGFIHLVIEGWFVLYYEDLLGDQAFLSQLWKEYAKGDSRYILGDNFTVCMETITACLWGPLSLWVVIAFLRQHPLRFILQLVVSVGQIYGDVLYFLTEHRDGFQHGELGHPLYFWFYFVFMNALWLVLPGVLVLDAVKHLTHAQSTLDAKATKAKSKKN

SMILES	pIC50
Cc1ccc(C#N)cc1S(=O)(=O)N1CCC2(CC1)C[C@H](N1CCOCC1)CO2 (single isomer, unassigned) [Example 15b]	5.82 to 6.60
Cc1cc(S(=O)(=O)N2CCC3(CC[C@@H](N4CCOCC4)C3)CC2)n(C)n1 (single isomer, unassigned) [Example 22a]	5.82 to 6.60
Cc1cc(S(=O)(=O)N2CCC3(CC[C@H](N4CCOCC4)C3)CC2)n(C)n1 (single isomer, unassigned) [Example 22b]	6.60 to 7.00
O=S(=O)(c1ccc(OC(F)F)cc1)N1CCC2(CC1)C[C@H](N1CC[C@]3(CCOC3)C1)CO2 (single isomer, unassigned) [Example 30b]	5.82 to 6.60
Cc1ccc(S(=O)(=O)N2CCC3(CC2)C[C@@H](N2CC(O)C2)CO3)c(Cl)c1 (single isomer, unassigned) [Example 53a]	> 7.00
Cc1ccc(S(=O)(=O)N2CCC3(CC2)C[C@H](N2CC(O)C2)CO3)c(Cl)c1 (single isomer, unassigned) [Example 53b]	6.60 to 7.00
COc1ncc(Cl)cc1S(=O)(=O)N1CCC2(CC1)C[C@@H](N1CC3(COC3)C1)CO2 (single isomer, unassigned) [Example 63a]	> 7.00
Cc1cc(S(=O)(=O)N2CCC3(CC[C@@H](N4CC5(COC5)C4)C3)CC2)n(C)n1 (single isomer, unassigned) [Example 68a]	6.60 to 7.00
Cc1cc(S(=O)(=O)N2CCC3(CC[C@H](N4CC5(COC5)C4)C3)CC2)n(C)n1 (single isomer, unassigned) [Example 68b]	6.60 to 7.00
N#Cc1cc(F)cc(S(=O)(=O)N2CCC3(CC[C@H](N4CC5(COC5)C4)C3)CC2)c1 (single isomer, unassigned) [Example 85b]	> 7.00
O=S(=O)(c1ccc(OC(F)F)cc1)N1CCC2(CC[C@@H](N3C[C@H]4C[C@@H]3CO4)C2)CC1 (single isomer, unassigned) [Example 86a]	> 7.00
O=S(=O)(c1ccc(OC(F)F)cc1)N1CCC2(CC[C@H](N3C[C@H]4C[C@@H]3CO4)C2)CC1 (single isomer, unassigned) [Example 86b]	> 7.00
O=S(=O)(c1ccc(OC(F)F)cc1)N1CCC2(CC[C@H](N3C[C@@H]4C[C@H]3CO4)C2)CC1 (single isomer, unassigned) [Example 90b]	> 7.00

Now from value to compound:

pIC50	SMILES
6.60 to 7.00	O=S(=O)(c1cc(F)cc(F)c1)N1CCC2(CC1)CC(N1CC3(COC3)C1)CO2 (racemic) [Example 118, rac-8-((3,5-difluorophenyl)sulfonyl)-3-(2-oxa-6-azaspiro[3.3]heptan-6-yl)-1-oxa-8-azaspiro[4.5]decane]
5.82 to 6.60	Cn1nc(C(F)(F)F)cc1S(=O)(=O)N1CCC2(CC1)CC(N1CCOCC1)CO2 (single isomer, unassigned) [Example 7, (R)- or (S)-8-((1-methyl-3-(trifluoromethyl)-1H-pyrazol-5-yl)sulfonyl)-3-morpholino-1-oxa-8-azaspiro[4.5]decane]
5.82 to 6.60	Cn1nc(C2CC2)cc1S(=O)(=O)N1CCC2(CC1)C[C@@H](N1CC3(COC3)C1)CO2 (single isomer, unassigned) [Example 57a]
5.82 to 6.60	Cn1nc(C2CC2)cc1S(=O)(=O)N1CCC2(CC1)C[C@H](N1CC3(COC3)C1)CO2 (single isomer, unassigned) [Example 57b]
6.60 to 7.00	Cc1cc(S(=O)(=O)N2CCC3(CC2)C[C@H](N2CC[C@@]4(CCOC4)C2)CO3)n(C)n1 (single isomer, unassigned) [Example 72a]
6.60 to 7.00	N#Cc1cc(F)cc(S(=O)(=O)N2CCC3(CC[C@@H](N4CC5(COC5)C4)C3)CC2)c1 (single isomer, unassigned) [Example 85a]
6.60 to 7.00	O=S(=O)(c1ccc(OC(F)F)cc1)N1CCC2(CC[C@@H](N3C[C@@H]4C[C@H]3CO4)C2)CC1 (single isomer, unassigned) [Example 90a]
> 7.00	O=S(=O)(c1cc(F)cc(F)c1)N1CCC2(CC1)C[C@H](N1CC3(COC3)C1)CO2 (single isomer, unassigned) [Example 119a]
